Measured values published in ChEMBL document CHEMBL3885861, “Open TG-GATES”.

Species on record: Rattus norvegicus
Experiment: Open TG-GATES - Regimen: Single
Format: toxicity, organism-based, Sprague-Dawley
Design: regimen Single, gender Male, age 6 weeks
Settings: in vivo, po, 0 mg/kg, route gavage, dose level Control; for APTT / Bas / Eos / Fbg / Hb / Ht / Lym / MCH / MCHC / MCV / Mono / Neu / PT / Plat / RBC / Ret / WBC: tissue Blood; for KIDNEY_L / KIDNEY_R / KIDNEY_TOTAL: tissue Kidney; for LIVER: tissue Liver; for A/G / ALP / ALT / AST / BUN / CRE / Ca / Cl / DBIL / GLC / IP / K / LDH / Na / PL / RALB / TBIL / TC / TG / TP / gamma-GTP: tissue Plasma

C[C@](N)(Cc1ccc(O)c(O)c1)C(=O)O [METHYLDOPA]
TERMINAL_BW (3 h): 189.8 g
APTT (3 h): 16.9 s
Bas (3 h): 0%
Eos (3 h): 0.8%
Fbg (3 h): 253.4 mg/dL
Hb (3 h): 13.1 g/dL
Ht (3 h): 39.1%
Lym (3 h): 75%
MCH (3 h): 22.2 pg
MCHC (3 h): 33.4%
MCV (3 h): 66.5 fL
Mono (3 h): 3.2%
Neu (3 h): 20.4%
PT (3 h): 12.3 s
Plat (3 h): 118.6 x10_4/uL
RBC (3 h): 588.6 x10_4/ul
Ret (3 h): 11%
WBC (3 h): 80.9 x10_2/uL
KIDNEY_L (3 h): 0.8 g
KIDNEY_R (3 h): 0.8 g
KIDNEY_TOTAL (3 h): 1.6 g
LIVER (3 h): 8 g
A/G (3 h): 0.9
ALP (3 h): 1671.4 IU/L
ALT (3 h): 54.6 IU/L
AST (3 h): 84.8 IU/L
BUN (3 h): 10 mg/dL
CRE (3 h): 0.2 mg/dL
Ca (3 h): 11.6 mg/dL
Cl (3 h): 106.8 meq/L
DBIL (3 h): 0.022 mg/dL
GLC (3 h): 164.4 mg/dL
IP (3 h): 9.4 mg/dL
K (3 h): 4.6 meq/L
LDH (3 h): 61.2 IU/L
Na (3 h): 141.8 meq/L
PL (3 h): 147.2 mg/dL
RALB (3 h): 2.6 g/dL
TBIL (3 h): 0.08 mg/dL
TC (3 h): 88 mg/dL
TG (3 h): 68.4 mg/dL
TP (3 h): 5.6 g/dL
gamma-GTP (3 h): 1.2 IU/L
TERMINAL_BW (6 h): 187.9 g
APTT (6 h): 17 s
Bas (6 h): 0%
Eos (6 h): 1%
Fbg (6 h): 266.8 mg/dL
Hb (6 h): 13.4 g/dL
Ht (6 h): 40.1%
Lym (6 h): 70.4%
MCH (6 h): 21.6 pg
MCHC (6 h): 33.5%
MCV (6 h): 64.5 fL
Mono (6 h): 3.8%
Neu (6 h): 24.4%
PT (6 h): 12.4 s
Plat (6 h): 120.7 x10_4/uL
RBC (6 h): 622.2 x10_4/ul
Ret (6 h): 9.7%
WBC (6 h): 82.2 x10_2/uL
KIDNEY_L (6 h): 0.8 g
KIDNEY_R (6 h): 0.8 g
KIDNEY_TOTAL (6 h): 1.6 g
LIVER (6 h): 7.3 g
A/G (6 h): 0.9
ALP (6 h): 1652.4 IU/L
ALT (6 h): 45.8 IU/L
AST (6 h): 74 IU/L
BUN (6 h): 8.4 mg/dL
CRE (6 h): 0.2 mg/dL
Ca (6 h): 11.2 mg/dL
Cl (6 h): 109 meq/L
DBIL (6 h): 0.014 mg/dL
GLC (6 h): 177.6 mg/dL
IP (6 h): 10.6 mg/dL
K (6 h): 4.6 meq/L
LDH (6 h): 54.2 IU/L
Na (6 h): 143.4 meq/L
PL (6 h): 128.4 mg/dL
RALB (6 h): 2.6 g/dL
TBIL (6 h): 0.076 mg/dL
TC (6 h): 81.2 mg/dL
TG (6 h): 43 mg/dL
TP (6 h): 5.6 g/dL
gamma-GTP (6 h): 1.2 IU/L
TERMINAL_BW (9 h): 189.5 g
APTT (9 h): 17.4 s
Bas (9 h): 0%
Eos (9 h): 1%
Fbg (9 h): 242 mg/dL
Hb (9 h): 12.7 g/dL
Ht (9 h): 37.7%
Lym (9 h): 75.4%
MCH (9 h): 21.7 pg
MCHC (9 h): 33.7%
MCV (9 h): 64.2 fL
Mono (9 h): 2.4%
Neu (9 h): 20.8%
PT (9 h): 13.6 s
Plat (9 h): 112.1 x10_4/uL
RBC (9 h): 588.8 x10_4/ul
Ret (9 h): 10.4%
WBC (9 h): 74.2 x10_2/uL
KIDNEY_L (9 h): 0.8 g
KIDNEY_R (9 h): 0.8 g
KIDNEY_TOTAL (9 h): 1.7 g
LIVER (9 h): 6.9 g
A/G (9 h): 0.9
ALP (9 h): 1737.2 IU/L
ALT (9 h): 44.4 IU/L
AST (9 h): 77.2 IU/L
BUN (9 h): 10.2 mg/dL
CRE (9 h): 0.1 mg/dL
Ca (9 h): 10.9 mg/dL
Cl (9 h): 108.2 meq/L
DBIL (9 h): 0.014 mg/dL
GLC (9 h): 182.6 mg/dL
IP (9 h): 11 mg/dL
K (9 h): 4.4 meq/L
LDH (9 h): 88 IU/L
Na (9 h): 143.2 meq/L
PL (9 h): 114.8 mg/dL
RALB (9 h): 2.4 g/dL
TBIL (9 h): 0.076 mg/dL
TC (9 h): 74.4 mg/dL
TG (9 h): 30.6 mg/dL
TP (9 h): 5.1 g/dL
gamma-GTP (9 h): 1.2 IU/L
TERMINAL_BW (24 h): 194.8 g
APTT (24 h): 17 s
Bas (24 h): 0%
Eos (24 h): 1%
Fbg (24 h): 237.6 mg/dL
Hb (24 h): 13 g/dL
Ht (24 h): 38.2%
Lym (24 h): 75.8%
MCH (24 h): 22 pg
MCHC (24 h): 34.1%
MCV (24 h): 64.4 fL
Mono (24 h): 3.4%
Neu (24 h): 19.4%
PT (24 h): 12.8 s
Plat (24 h): 113.1 x10_4/uL
RBC (24 h): 594.4 x10_4/ul
Ret (24 h): 9.5%
WBC (24 h): 77.2 x10_2/uL
KIDNEY_L (24 h): 0.9 g
KIDNEY_R (24 h): 0.9 g
KIDNEY_TOTAL (24 h): 1.8 g
LIVER (24 h): 8.8 g
A/G (24 h): 0.9
ALP (24 h): 1858.4 IU/L
ALT (24 h): 55.2 IU/L
AST (24 h): 83 IU/L
BUN (24 h): 13 mg/dL
CRE (24 h): 0.2 mg/dL
Ca (24 h): 11 mg/dL
Cl (24 h): 107.2 meq/L
DBIL (24 h): 0.008 mg/dL
GLC (24 h): 183.6 mg/dL
IP (24 h): 7.8 mg/dL
K (24 h): 4.3 meq/L
LDH (24 h): 69.8 IU/L
Na (24 h): 142 meq/L
PL (24 h): 128.6 mg/dL
RALB (24 h): 2.5 g/dL
TBIL (24 h): 0.062 mg/dL
TC (24 h): 72.6 mg/dL
TG (24 h): 58.2 mg/dL
TP (24 h): 5.3 g/dL
gamma-GTP (24 h): 1 IU/L
